{"source": "patent US20130190404A1", "about": "“CRYSTALS OF CARBOPROST TROMETHAMINE AND THE PREPARATION METHOD AS WELL AS THE USES THEREOF” (SHANGHAI TECHWELL BIOPHARMACEUTICAL CO., LTD., priority 2010, published 2013)", "experiment": "Purity and stability test: content of impurities by HPLC after sealed storage at 25° C. for 7 days", "format": "physicochemical", "conditions": "for Content of impurities after stored at 25° C. for 7 days: sealed storage; for Content of impurities after stored at 25° C. for 7 days / Initial content of impurities: HPLC; for Initial content of impurities: before storage (baseline of the stability test)", "method": "In the following examples, high performance liquid chromatography (HPLC) method (European Pharmacopoeia) used for detecting the purity of the crystal of arboprost tromethamine obtained are listed as follows:\nStationary phase: silica gel, particle size 5-μm\nMobile phase: acetonitrile:aqueous Sodium Dihydrogen Phosphate (pH=2.5)=23:77 (V/V)\nColumn temperature: 35° C.\nDetection wavelength: 200 nm\nIn the present example, the samples from the comparative-example and examples were test for purity and stability. The method for testing is described as follows:\nThe samples from comparative-example 1, example 2 and example 4 were obtained and kept at 25° C. for 7 days in sealed storage. And then the content of impurities in each sample was tested.", "data": [{"smiles": "CCCCC[C@](C)(O)/C=C/[C@@H]1[C@@H](C/C=C\\CCCC(=O)O)[C@@H](O)C[C@H]1O", "note": "[Example 2, carboprost tromethamine]", "values": [{"measurement": "Content of impurities after stored at 25° C. for 7 days", "result": 0.3, "unit": "%"}, {"measurement": "Initial content of impurities", "result": 0.3, "unit": "%"}]}, {"smiles": "CCCCC[C@](C)(O)/C=C/[C@@H]1[C@@H](C/C=C\\CCCC(=O)O)[C@@H](O)C[C@H]1O", "note": "[Example 4, carboprost tromethamine]", "values": [{"measurement": "Content of impurities after stored at 25° C. for 7 days", "result": 0.2, "unit": "%"}, {"measurement": "Initial content of impurities", "result": 0.2, "unit": "%"}]}, {"smiles": "CCCCC[C@](C)(O)/C=C/[C@@H]1[C@@H](C/C=C\\CCCC(=O)O)[C@@H](O)C[C@H]1O", "note": "[compound 1, carboprost tromethamine]", "values": [{"measurement": "Content of impurities after stored at 25° C. for 7 days", "result": 4.0, "unit": "%"}, {"measurement": "Initial content of impurities", "result": 0.5, "unit": "%"}]}, {"smiles": "CCCCC[C@](C)(O)/C=C/[C@@H]1[C@@H](C/C=C\\CCCC(=O)O)[C@@H](O)C[C@H]1O", "note": "[crystal of carboprost tromethamine, 2-amino-2-(hydroxymethyl)propan-1,3-diol(5Z)-7-[(1R,2R,3R,5S)-3,5-dihydroxy-2-[(1E,3S)-3-hydroxy-3-methyl-1-octene]cyclopentyl]-5-heptylic acid]", "values": [{"measurement": "stability after storage (in words)", "setting": "after stored for a long time, conclusion from the table", "result": "excellent stability"}]}]}
